Here are results for eleven molecules from patent publication US6534325B1, “Immunoassay for the detection of amphetamines, methamphetamines and methylenedioxy designer amphetamines” (priority 2000, dated 2003).

Each structure is given as a SMILES string. Like-named read-outs stand apart in the source and are kept apart here.

The test system of experiment [1] is amphetamine antibody and methamphetamine antibody. To be noted: cutoff 1000 ng/ml, currently marketed assay, cited from earlier work.
The subject of experiment [2] is amphetamine and methamphetamine monoclonal antibodies (mouse). The experiment in a line: Roche Hitachi AMP/MDMA immunoassay (method of the invention, MDMA calibrator), cross-reactivity. The following applies: cutoff 300 ng/ml, MDMA calibrator, HITACHI 917 analyzer.
The subject of experiment [3] is amphetamine antibody and methamphetamine antibody. To be noted: cutoff 500 ng/ml, currently marketed assay, cited from earlier work.
Experiment [4] deals with amphetamine and methamphetamine monoclonal antibodies (mouse). The experiment in a line: Roche Hitachi AMP/MDMA immunoassay with MDA calibrator, cross-reactivity. To be noted: cutoff 300 ng/ml, HITACHI 717 analyzer.
For experiment [5], the system named is amphetamine antibody and methamphetamine antibody. To be noted: cutoff 500 ng/ml, currently marketed assay, cited from earlier work. The source holds these as a separate data set.
Experiment [6] shares this test system. To be noted: cutoff 1000 ng/ml, currently marketed assay, cited from earlier work. The source holds these as a separate data set.

Turning to `CN[C@@H](C)Cc1ccccc1` [l-MAMP, methamphetamine], the “Cross-reactivity, CEDIA DAU AMP” value in experiment [1] (listed as 1-MAMP) is reported as 12%. Besides, in experiment [2] (listed as 1-MAMP), the “Cross-reactivity, Roche Hitachi AMP/MDMA” value is 18%. Further, the “Cross-reactivity, Roche Integra AMPSC” value in experiment [3] was 12%. Also, the “Cross-reactivity, Roche Hitachi AMP/MDMA, MDA used as calibrator” value in experiment [4] came to 24.7%. Further, the “Cross-reactivity, Roche Hitachi AMP” value in experiment [5] (listed as 1-MAMP) is given as 0.8%. Besides, the “Cross-reactivity, Abbott TDX AMP/methAMP” value in experiment [6] (listed as 1-MAMP) is listed as 7.2%.
For `CCC(N)Cc1ccc2c(c1)OCO2` (racemic) [BDB, (±)-(3,4-methylenedioxyphenyl)-2-butanamine], in experiment [2], the “Cross-reactivity, Roche Hitachi AMP/MDMA” value is reported as 4.7%.
`CN[C@@H](C)[C@H](O)c1ccccc1` (racemic) [dl-ephedrine, ephedrine]: the “Cross-reactivity, CEDIA DAU AMP” value in experiment [1] was 0.4%. In experiment [2], the “Cross-reactivity, Roche Hitachi AMP/MDMA” value is on record as below 0.3%. In addition, the “Cross-reactivity, Roche Integra AMPSC” value in experiment [3] is below 0.1%. The “Cross-reactivity, Roche Hitachi AMP/MDMA, MDA used as calibrator” value in experiment [4] came out at 0.34%. Besides, in experiment [5], the “Cross-reactivity, Roche Hitachi AMP” value is below 0.1%.
With `CCC(Cc1ccc2c(c1)OCO2)NC` (racemic) [MBDB, (±)-N-methyl-1-(3,4-methylenedioxyphenyl)-2-butanamine], in experiment [2], the “Cross-reactivity, Roche Hitachi AMP/MDMA” value is reported as 70.0%.
On to `CC(N)C(O)c1ccccc1` (stereo not drawn) [l-PPA, phenylpropanolamine], for which the “Cross-reactivity, Roche Hitachi AMP/MDMA” value in experiment [2] is reported as 0.6%. The “Cross-reactivity, Roche Integra AMPSC” value in experiment [3] is 1.1%. Besides, the “Cross-reactivity, Roche Hitachi AMP/MDMA, MDA used as calibrator” value in experiment [4] was determined as 6.2%. Moreover, the “Cross-reactivity, Roche Hitachi AMP” value in experiment [5] is on record as 1.5%.
As for `CNC(C)Cc1ccc(O)c(OC)c1` (stereo not drawn) [HMMA, 4-hydroxy-3-methoxymethamphetamine], in experiment [2], the “Cross-reactivity, Roche Hitachi AMP/MDMA” value is given as below 0.3%.
Turning to `CN[C@@H](C)Cc1ccccc1` [d-MAMP, methamphetamine], the “Cross-reactivity, CEDIA DAU AMP” value in experiment [1] is listed as 100%. In addition, the “Cross-reactivity, Roche Hitachi AMP/MDMA” value in experiment [2] was 300.0%. Further, the “Cross-reactivity, Roche Integra AMPSC” value in experiment [3] was 12%. The “Cross-reactivity, Roche Hitachi AMP/MDMA, MDA used as calibrator” value in experiment [4] stood at 269.0%. Besides, the “Cross-reactivity, Roche Hitachi AMP” value in experiment [5] is 82.2%. Further, the “Cross-reactivity, Abbott TDX AMP/methAMP” value in experiment [6] is recorded as 97.8%.
As to `CC(N)Cc1ccccc1` (stereo not drawn) [d-AMP, amphetamine], the “Cross-reactivity, CEDIA DAU AMP” value in experiment [1] is 101%. Besides, in experiment [2], the “Cross-reactivity, Roche Hitachi AMP/MDMA” value was determined as 97.0%. Further, in experiment [3], the “Cross-reactivity, Roche Integra AMPSC” value is listed as 100%. Besides, the “Cross-reactivity, Roche Hitachi AMP/MDMA, MDA used as calibrator” value in experiment [4] is 319.0%. Moreover, the “Cross-reactivity, Roche Hitachi AMP” value in experiment [5] was 100%. For the same molecule, in experiment [6], the “Cross-reactivity, Abbott TDX AMP/methAMP” value was 100%.
Take `CC(N)Cc1ccccc1` (stereo not drawn) [l-AMP, amphetamine]: the “Cross-reactivity, CEDIA DAU AMP” value in experiment [1] (listed as 1-AMP) is recorded as 3.0%. Moreover, the “Cross-reactivity, Roche Hitachi AMP/MDMA” value in experiment [2] (listed as 1-AMP) stood at 3.8%. Moreover, the “Cross-reactivity, Roche Integra AMPSC” value in experiment [3] (listed as 1-AMP) is 4.2%. The “Cross-reactivity, Roche Hitachi AMP/MDMA, MDA used as calibrator” value in experiment [4] was 15.2%. Moreover, in experiment [5] (listed as 1-AMP), the “Cross-reactivity, Roche Hitachi AMP” value is given as 6%. The “Cross-reactivity, Abbott TDX AMP/methAMP” value in experiment [6] (listed as 1-AMP) is 56.9%.
Regarding `CC(N)Cc1ccc2c(c1)OCO2` (racemic) [MDA, (±)-3,4-methylenedioxyamphetamine], in experiment [1], the “Cross-reactivity, CEDIA DAU AMP” value is 1.9%. For the same molecule, the “Cross-reactivity, Roche Hitachi AMP/MDMA” value in experiment [2] was found to be 25.0%. Moreover, the “Cross-reactivity, Roche Integra AMPSC” value in experiment [3] was 40%. Also, in experiment [4], the “Cross-reactivity, Roche Hitachi AMP/MDMA, MDA used as calibrator” value amounted to 100.0%. The “Cross-reactivity, Roche Hitachi AMP” value in experiment [5] is 35.5%. In experiment [6], the “Cross-reactivity, Abbott TDX AMP/methAMP” value is given as 148%.
As to `CNC(C)Cc1ccc2c(c1)OCO2` (racemic) [MDMA, (±)-3,4 methylenedioxymethamphetamine], in experiment [1], the “Cross-reactivity, CEDIA DAU AMP” value is recorded as 69%. In addition, the “Cross-reactivity, Roche Hitachi AMP/MDMA” value in experiment [2] stood at 100.0%. Moreover, the “Cross-reactivity, Roche Integra AMPSC” value in experiment [3] is 79%. Also, the “Cross-reactivity, Roche Hitachi AMP/MDMA, MDA used as calibrator” value in experiment [4] is listed as 81.0%. Besides, the “Cross-reactivity, Roche Hitachi AMP” value in experiment [5] is recorded as 36%. For the same molecule, the “Cross-reactivity, Abbott TDX AMP/methAMP” value in experiment [6] is reported as 97%.
